Data: the supplement of paper PMC10307832

What was measured:
Experiment in all cases: relative viability (nuclei count vs DMSO), 5 days (fraction); higher = more cells survive
[1] = compound: C#Cc1cccc(Nc2ncnc3cc(OC)c(OCCCCCCC(=O)NO)cc23)c1 [CUDC-101] + CS(=O)(=O)CCNCc1ccc(-c2ccc3ncnc(Nc4ccc(OCc5cccc(F)c5)c(Cl)c4)c3c2)o1 [Lapatinib] (partner 2 µM)
Method in brief: (§1)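 Relative viability divides the nuclei count in treated wells by that in vehicle wells. Lung cancer cell lines were seeded in 1536-well plates, dosed by pin tool the next day, and fixed and stained after 5 days in one step with final 0.05% Triton X-100, 1% formaldehyde and 1 ug/ml Hoechst. Dosing was a single drug or a fixed anchor-drug dose plus five library-drug doses (not always all listed) in √10 steps, and values are medians of duplicate plates imaged at 4×.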

[2] = compound: C1=CC=C2C(=C1)N=C(S2)C(C#N)C3=NC(=NC=C3)NCCC4=CN=CC=C4 + CC(C)C[C@H](NC(=O)[C@H](Cc1ccccc1)NC(=O)c1cnccn1)B(O)O [Bortezomib] (partner 0.002 µM)
Method in brief: as §1

[3] = compound: COc1cc(N2CCC(N3CCN(C)CC3)CC2)ccc1Nc1ncc(Cl)c(Nc2ccccc2S(=O)(=O)C(C)C)n1 [NVP-TAE684] + COc1cccc2cc(-c3nc([C@H]4CC[C@H](C(=O)O)CC4)n4ncnc(N)c34)[nH]c12 [OSI-027] (partner 0.5 µM)
Method in brief: as §1

[4] = compound: COc1cc(N2CCC(N3CCN(C)CC3)CC2)ccc1Nc1ncc(Cl)c(Nc2ccccc2S(=O)(=O)C(C)C)n1 [NVP-TAE684] + CC(=O)c1c(C)c2cnc(Nc3ccc(N4CCNCC4)cn3)nc2n(C2CCCC2)c1=O [Palbociclib] (partner 0.5 µM)
Method in brief: as §1

Row | Cell Line | relative viability ([1]; first compound 0.01 µM) | relative viability ([1]; first compound 0.03162 µM) | relative viability ([1]; first compound 0.1 µM) | relative viability ([1]; first compound 0.3162 µM) | relative viability ([1]; first compound 1 µM) | relative viability ([2]; first compound 0.005 µM) | relative viability ([2]; first compound 0.1581 µM) | relative viability ([2]; first compound 0.5 µM) | relative viability ([3]; first compound 0.2 µM) | relative viability ([3]; first compound 0.6325 µM) | relative viability ([3]; first compound 2 µM) | relative viability ([4]; first compound 0.2 µM) | relative viability ([4]; first compound 0.6325 µM) | relative viability ([4]; first compound 2 µM) | relative viability ([2]; first compound 0.01581 µM) | relative viability ([2]; first compound 0.05 µM)
1 | CAL-12T | 0.796 | 0.603 | 0.763 | 0.64 | 0.567 | 0.83 | 1.2 | 0.54 | 0.538 | 0.372 | 0.158 | 0.357 | 0.344 | 0.186 | – | –
2 | COR-L23 | 1.02 | 1.02 | 0.889 | 1.1 | 0.449 | 0.891 | 1.16 | 0.925 | 0.818 | 0.804 | 0.316 | 0.307 | 0.209 | 0.152 | 1 | 1.08
3 | COR-L 105 | 0.425 | 0.356 | 0.316 | 0.264 | 0.226 | 0.725 | 0.783 | 0.666 | 0.636 | 0.441 | 0.268 | 0.4 | 0.393 | 0.297 | 0.583 | 0.723
4 | EKVX | 0.255 | 0.199 | 0.22 | 0.203 | 0.169 | 0.94 | 1.31 | 0.996 | 0.577 | 0.698 | 0.521 | 0.358 | 0.351 | 0.34 | 1.13 | 1.1
5 | EMC-BAC-2 | 0.836 | 0.88 | 0.909 | 0.974 | 0.485 | 0.998 | 1.12 | 0.945 | 0.364 | 0.344 | 0.324 | 0.483 | 0.499 | 0.357 | 1.05 | 1.06
6 | EPLC-272H | 1.13 | 0.987 | 1 | 0.392 | 0.482 | 0.772 | 1.03 | 0.738 | 0.227 | 0.251 | 0.203 | 0.324 | 0.321 | 0.27 | 0.777 | 0.958
7 | H3255 | 0.244 | 0.248 | 0.24 | 0.248 | 0.174 | 0.705 | 0.837 | 0.749 | 0.531 | 0.602 | 0.4 | 0.324 | 0.299 | 0.296 | 0.696 | 0.694
8 | HARA | 0.739 | 0.789 | 0.739 | 0.71 | 0.453 | 1.22 | 1.18 | 0.859 | 0.538 | 0.351 | 0.281 | 0.297 | 0.234 | 0.164 | 1.04 | 1.14
9 | HCC-15 | 0.857 | 0.908 | 0.831 | 0.845 | 0.698 | 0.835 | 1.13 | 0.835 | 0.631 | 0.525 | 0.381 | 0.63 | 0.7 | 0.587 | 1.02 | 1.15
10 | HCC-44 | 0.923 | 1.07 | 0.947 | 0.979 | 0.812 | 0.87 | 0.961 | 0.882 | 0.525 | 0.428 | 0.218 | 1.01 | 0.986 | 0.867 | 0.878 | 0.877
11 | HCC-78 | 0.882 | 0.92 | 0.808 | 0.701 | 0.631 | 0.547 | 0.465 | 0.589 | 0.339 | 0.254 | 0.348 | 0.487 | 0.388 | 0.479 | 0.575 | 0.49
12 | HCC-366 | 1.07 | 1.06 | 1.07 | 0.755 | 0.459 | 0.85 | 1.3 | 0.927 | 1.15 | 0.772 | 0.401 | 0.352 | 0.4 | 0.166 | 1.1 | 1.07
13 | HCC-827 | 0.206 | 0.181 | 0.178 | 0.174 | 0.218 | 0.999 | 1.15 | 1.06 | 0.681 | 0.743 | 0.848 | 0.452 | 0.511 | 0.5 | 1.04 | 1.09
14 | HOP-62 | 1.03 | 0.909 | 1.05 | 0.768 | 0.821 | 0.798 | 1.09 | 0.738 | 0.902 | 0.878 | – | 0.54 | 0.501 | 0.491 | 0.576 | 0.907
15 | LC-2-ad | 0.984 | 1.02 | 1.06 | 0.863 | 0.198 | 1 | 1.08 | 0.944 | 0.804 | 0.673 | 0.317 | 0.43 | 0.482 | 0.32 | 1.08 | 1.01
16 | LCLC-97TM1 | 0.905 | 0.766 | 1.13 | 1.01 | 0.807 | – | 0.754 | 0.291 | 0.52 | 0.473 | 0.14 | 0.251 | 0.249 | 0.0774 | 0.356 | 0.627
17 | LOU-NH91 | 0.843 | 0.772 | 0.764 | 0.825 | 0.641 | 0.492 | 0.464 | 0.43 | 0.746 | 0.674 | 0.571 | 0.548 | 0.504 | 0.502 | 0.515 | 0.507
18 | LU99A | 1.2 | 0.889 | 0.987 | 0.861 | 0.321 | 1.08 | 1.27 | 1.43 | 0.319 | 0.265 | 0.239 | 0.373 | 0.429 | 0.254 | 1.14 | 1.1
19 | LXF-289 | 0.895 | 0.915 | 0.97 | 0.915 | 0.694 | 0.888 | 1.06 | 0.717 | 0.798 | 0.808 | 0.317 | 0.56 | 0.618 | 0.643 | 1.03 | 1.02
